From patent US7132231B2, “Fluorescence polarization method for determining viral inhibitors” (priority 2001, dated 2006)
pIC50: −log10 of the molar value.

Experiments:
HSV Pol [1] = target: T1, HSV Pol (Human herpesvirus 1, UniProt P04293, N46K); test: Catalytic subunit activity filter binding assay (Pol alone); type: biochemical, herpes simplex virus; settings: at higher compound concentrations, FIG. 5
T1 construct: in presence of the whole catalytic subunit
Method: (§1) DNA polymerase long-chain synthesis assay. Compounds which elicited a decrease in the fluorescence polarization, when compared to control values, were tested for the ability to inhibit long-chain DNA synthesis via inhibition of polymerase subunit assembly [Digard et al. 1995; Bridges et al. 2001] using a poly-A template (Amersham Pharmacia) and an oligo-dT primer (Roche Molecular Biochemicals) on which Pol alone adds only a few bases. Reaction mixtures (50 mM Tris-HCl pH 7.5, 100 mM ammonium sulfate, 3 mM MgCl2, 0.1 mM EDTA, 1 mM DTT, 4% Glycerol, 40 ug ml^−1 BSA, 100 ug ml^−1 primer/template, 50 uM α-^32P-TTP (111 TBq/mmol; NEN Life Science products)), contained 200 fmol of HSV Pol ([Weisshart et al. 1994]), 400 fmol of HSV MBP-UL42 and varying amounts of compound in a final volume of 25 ul. Reactions were carried out at 37° C. for 5 minutes and stopped by adding 5 ul of alkaline loading buffer (2mM EDTA, 50mM NaOH, 2.5% glycerol, 0.025% bromocresol green) and placing them on ice and were then loaded onto an 4% alkaline agarose gel. Gels were dried over night and exposed to phosphorescence screens (BioRad). Catalytic subunit activity filter binding assay. Compounds which elicited a decrease in fluorescence polarization were tested for the ability to inhibit DNA synthesis by Pol alone using the oligo-(dT)/poly-(dA) primer-template. Reaction mixtures (50 mM TrisHCl pH 7.5, 100 mM ammonium sulfate, 3 mM MgCl2, 0.1 mM EDTA, 1 mM DTT, 4% Glycerol, 40 μg ml^31 1 BSA, 100 μg ml^−1 primer/template, 50 μM α-^32P-TTP (111 TBq/mmol)) contained 200 fmol of HSV Pol and various amounts of each compound in a final volume of 25 μl. Reactions were carried out at 37° C. for 25 minutes and stopped by placing 10 μl of the reaction mix onto DE81 filter discs. After washes in sodium hydrogen phosphate, water and ethanol, they were counted in a liquid scintillation analyzer (Packard 1600 TR). Plaque reduction assay. Confluent monolayers of Vero (African green monkey kidney) cells in 12-well dishes were infected with herpes virus strain 17 dilutions such that each well received between 25 and 50 PFU. Diluted virus was absorbed to cells in 2 ml Dulbecco's modified Eagle's medium containing 2.5% newborn calf serum, 100 U penicillin G ml^−1 and 100 ug streptomycin sulfate ml^−1 for 1 hour at 37° C. in a humidified CO2 incubator. After absorption, triplicate infected cultures were overlaid with 2% methyl cellulose in Dulbecco's modified Eagle's medium containing 5% newborn calf serum, 100 U penicillin G ml^−1, 100 ug streptomycin sulfate ml^−1 and various concentrations of the compounds which elicited a decrease in fluorescence polarization and incubated at 37° C. in a humidified CO2 incubator. Plaques were visualized by crystal violet staining at 2 to 3 days post infection and were counted on the following day [Coen et al. 1985]. Cytotoxicity assays. Vero cells (5×10^4 cells per well) were seeded into 96-well plates and treated with various concentrations of the compounds (which elicited a decrease in the fluorescence polarization) for 72 h in quadruplicates. […] In parallel, equally compound-treated cells were fixed by adding 95% ethanol, stained with crystal violet solution and washed. After addition of 100 ul acidified ethanol (EtOH:HCl=99:1) to dissolve the crystal violet, the plates were read in the plate reader (Wallac). Viral yield assay. Vero cells were seeded into 96-well (5×10^4 cells per well) tissue culture plates in 0.2 ml Dulbecco's modified Eagle's medium containing 2.5% newborn calf serum and 100 U penicillin G ml^−1. Cultures were inoculated with HSV strain 17 at an MOI of 5 PFU per cell. The virus inoculum was replaced after two hours with medium containing dilution series of test compounds and left for 24 hours. After two cycles of freeze-thawing, each drug dilution row was transferred to a freshly seeded 96-well plate and serially 1:3 diluted over the whole plate. After two days, plaques were stained and counted under a microscope [Pritchard et al. 1990]. […]

HSV Pol [2] = target: T2, HSV Pol (Human herpesvirus 1, UniProt P04293); test: as above; type: biochemical, herpes simplex virus
T2 construct: in presence of the whole catalytic subunit
Method: as §1

[3] = target: T3, Pol/UL42 long-chain DNA synthesis (HSV Pol + HSV MBP-UL42) (Human herpesvirus 1, UniProt P10226); test: DNA polymerase long-chain synthesis assay; type: biochemical, herpes simplex virus; settings: for ability of UL42 to stimulate long-chain synthesis by Pol: FIG. 4, BP1, BP3, BP5 at 30 μM, BP9 at 100, 75, 50, 25 and 12 μM
T3 construct: in presence of the whole catalytic subunit; made in house; host or cells: UL42 fusion: E. coli BL21(de3)pLysS
Method: as §1

[4] = target: T4, Pol/UL42 interaction (Oregon Green-peptide E / MBP-UL42Δ340) (Human herpesvirus 1, UniProt P10226); test: Fluorescence polarization (FP) assay of Pol peptide/UL42 binding; design: species or system herpes simplex virus; settings: for dose dependent change in the FP signal: serial dilution, FIG. 3
T4 construct: made in house; host or cells: E. coli BL21(de3)pLysS (UL42Δ340 fusion); peptide E synthetic
Method: Peptide probe and MBP-UL42. A peptide comprising the 18 C-terminal amino acids of HSV Pol (peptide E) was synthesized, N-terminally labeled with the pentafluorofluorescein-derivative Oregon Green 514 (Molecular Probes) and HPLC-purified. A truncated version of UL42 (UL42Δ340) was expressed in BL21(de3)pLysS E.coli as maltose binding protein fusion as described [Bridges et al. 2001] and purified over an amylose column (New England Biolabs). […] After elution with 10 mM maltose in 50 mM TrisHCl, 1 mM DTT, 0.5 mM EDTA, 4% Glycerol, 200 mM NaCl and Complete™ protease inhibitors (Roche Molecular Biochemicals), the protein was concentrated when necessary and stored at −80° C. until further use. After thawing, the purification buffer was exchanged to low fluorescent grade reagents (PanVera) and maltose was removed simultaneously using 10-DG Bio-Gel columns (BioRad). Fluorescence polarization assays. 1 nM of Oregon Green-peptide E was added to 7 uM MBP-UL42Δ340 and kept on ice until the mix was distributed into black 384-well plates (LJL Biosystems) in a total volume of 20 ul per well. The buffer conditions were 50 mM TrisHCl pH 7.5, 1 mM DTT, 0.5 mM EDTA, 150 mM NaCl, 4% Glycerol and 100 ug ml^−1 bovine gamma globulin. All chemicals were low fluorescent grade (PanVera).
Using this assay, the 16,320 compound Chembridge library that had been purchased by the Harvard Institute of Chemistry and Cell Biology (ICBB) was screened. Small molecules (5 mg ml^−1 in DMSO; ChemBridge) were screened using 384-pin arrays (Genetix), and 40 nl of each compound was transferred into every well. After incubation between 5 and 45 minutes at room temperature, the FP values were determined in the Analyst plate reader (LJL Biosystems). Chemicals for further testing were obtained from ChemBridge.
DNA polymerase long-chain synthesis assay. Compounds which elicited a decrease in the fluorescence polarization, when compared to control values, were tested for the ability to inhibit long-chain DNA synthesis via inhibition of polymerase subunit assembly [Digard et al. 1995; Bridges et al. 2001] using a poly-A template (Amersham Pharmacia) and an oligo-dT primer (Roche Molecular Biochemicals) on which Pol alone adds only a few bases. Reaction mixtures (50 mM Tris-HCl pH 7.5, 100 mM ammonium sulfate, 3 mM MgCl2, 0.1 mM EDTA, 1 mM DTT, 4% Glycerol, 40 ug ml^−1 BSA, 100 ug ml^−1 primer/template, 50 uM α-^32P-TTP (111 TBq/mmol; NEN Life Science products)), contained 200 fmol of HSV Pol ([Weisshart et al. 1994]), 400 fmol of HSV MBP-UL42 and varying amounts of compound in a final volume of 25 ul. Reactions were carried out at 37° C. for 5 minutes and stopped by adding 5 ul of alkaline loading buffer (2mM EDTA, 50mM NaOH, 2.5% glycerol, 0.025% bromocresol green) and placing them on ice and were then loaded onto an 4% alkaline agarose gel. Gels were dried over night and exposed to phosphorescence screens (BioRad). Catalytic subunit activity filter binding assay. Compounds which elicited a decrease in fluorescence polarization were tested for the ability to inhibit DNA synthesis by Pol alone using the oligo-(dT)/poly-(dA) primer-template. Reaction mixtures (50 mM TrisHCl pH 7.5, 100 mM ammonium sulfate, 3 mM MgCl2, 0.1 mM EDTA, 1 mM DTT, 4% Glycerol, 40 μg ml^31 1 BSA, 100 μg ml^−1 primer/template, 50 μM α-^32P-TTP (111 TBq/mmol)) contained 200 fmol of HSV Pol and various amounts of each compound in a final volume of 25 μl. Reactions were carried out at 37° C. for 25 minutes and stopped by placing 10 μl of the reaction mix onto DE81 filter discs. After washes in sodium hydrogen phosphate, water and ethanol, they were counted in a liquid scintillation analyzer (Packard 1600 TR). Plaque reduction assay. Confluent monolayers of Vero (African green monkey kidney) cells in 12-well dishes were infected with herpes virus strain 17 dilutions such that each well received between 25 and 50 PFU. […]

[5] = Cytotoxicity assay (XTT / crystal violet); type: cell-based, African green monkey; settings: monkey; for CC50 at 72 h: Vero cells, read-out: Toxicity IC50
Method: as §1, with “Vero cells were seeded into 96-well (5×10^4 cells per well) tissue culture plates in 0.2 ml Dulbecco's modified Eagle's medium containing 2.5% newborn calf serum and 100 U penicillin G ml^−1. Cultures were inoculated with HSV strain 17 at an MOI of 5 PFU per cell. The virus inoculum was replaced after two hours with medium containing dilution series of test compounds and left for 24 hours. After two cycles of freeze-thawing, each drug dilution row was transferred to a freshly seeded 96-well plate and serially 1:3 diluted over the whole plate.” left out

herpes virus strain 17 = test: Plaque reduction assay; type: cell-based, herpes simplex virus; settings: Vero cells, data not shown
Method: (§2) DNA polymerase long-chain synthesis assay. Compounds which elicited a decrease in the fluorescence polarization, when compared to control values, were tested for the ability to inhibit long-chain DNA synthesis via inhibition of polymerase subunit assembly [Digard et al. 1995; Bridges et al. 2001] using a poly-A template (Amersham Pharmacia) and an oligo-dT primer (Roche Molecular Biochemicals) on which Pol alone adds only a few bases. […] Compounds which elicited a decrease in fluorescence polarization were tested for the ability to inhibit DNA synthesis by Pol alone using the oligo-(dT)/poly-(dA) primer-template. […] After washes in sodium hydrogen phosphate, water and ethanol, they were counted in a liquid scintillation analyzer (Packard 1600 TR). […] After absorption, triplicate infected cultures were overlaid with 2% methyl cellulose in Dulbecco's modified Eagle's medium containing 5% newborn calf serum, 100 U penicillin G ml^−1, 100 ug streptomycin sulfate ml^−1 and various concentrations of the compounds which elicited a decrease in fluorescence polarization and incubated at 37° C. in a humidified CO2 incubator. Plaques were visualized by crystal violet staining at 2 to 3 days post infection and were counted on the following day [Coen et al. 1985]. […] After addition of 100 ul acidified ethanol (EtOH:HCl=99:1) to dissolve the crystal violet, the plates were read in the plate reader (Wallac). […]

HSV strain 17 = test: Viral yield assay; type: cell-based, herpes simplex virus; settings: Vero cells, MOI of 5, 24 h; read-out: ED90 viral yield reduction
Method: as §2

[6] = test system: Pol/UL42 long-chain DNA synthesis (HSV Pol + HSV MBP-UL42); settings: literature values [Digard et al. 1995; Bridges et al. 2000]; read-out: IC50 for specific inhibition of UL42 stimulated long-chain DNA synthesis; cited from earlier work

T3 sequence (P10226 1-339): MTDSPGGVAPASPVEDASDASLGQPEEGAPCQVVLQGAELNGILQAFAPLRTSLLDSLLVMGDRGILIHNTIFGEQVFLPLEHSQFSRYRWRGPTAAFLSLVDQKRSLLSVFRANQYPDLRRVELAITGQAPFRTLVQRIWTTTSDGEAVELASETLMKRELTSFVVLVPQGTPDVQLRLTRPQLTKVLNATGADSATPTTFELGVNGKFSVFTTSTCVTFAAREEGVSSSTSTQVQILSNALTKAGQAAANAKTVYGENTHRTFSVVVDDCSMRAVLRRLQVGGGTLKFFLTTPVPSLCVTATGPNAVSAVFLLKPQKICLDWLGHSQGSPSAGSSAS
T4 sequence (P10226 1-339, stated change not applied): as the sequence (P10226 1-339) above
T2 sequence (P04293 whole entry N46K): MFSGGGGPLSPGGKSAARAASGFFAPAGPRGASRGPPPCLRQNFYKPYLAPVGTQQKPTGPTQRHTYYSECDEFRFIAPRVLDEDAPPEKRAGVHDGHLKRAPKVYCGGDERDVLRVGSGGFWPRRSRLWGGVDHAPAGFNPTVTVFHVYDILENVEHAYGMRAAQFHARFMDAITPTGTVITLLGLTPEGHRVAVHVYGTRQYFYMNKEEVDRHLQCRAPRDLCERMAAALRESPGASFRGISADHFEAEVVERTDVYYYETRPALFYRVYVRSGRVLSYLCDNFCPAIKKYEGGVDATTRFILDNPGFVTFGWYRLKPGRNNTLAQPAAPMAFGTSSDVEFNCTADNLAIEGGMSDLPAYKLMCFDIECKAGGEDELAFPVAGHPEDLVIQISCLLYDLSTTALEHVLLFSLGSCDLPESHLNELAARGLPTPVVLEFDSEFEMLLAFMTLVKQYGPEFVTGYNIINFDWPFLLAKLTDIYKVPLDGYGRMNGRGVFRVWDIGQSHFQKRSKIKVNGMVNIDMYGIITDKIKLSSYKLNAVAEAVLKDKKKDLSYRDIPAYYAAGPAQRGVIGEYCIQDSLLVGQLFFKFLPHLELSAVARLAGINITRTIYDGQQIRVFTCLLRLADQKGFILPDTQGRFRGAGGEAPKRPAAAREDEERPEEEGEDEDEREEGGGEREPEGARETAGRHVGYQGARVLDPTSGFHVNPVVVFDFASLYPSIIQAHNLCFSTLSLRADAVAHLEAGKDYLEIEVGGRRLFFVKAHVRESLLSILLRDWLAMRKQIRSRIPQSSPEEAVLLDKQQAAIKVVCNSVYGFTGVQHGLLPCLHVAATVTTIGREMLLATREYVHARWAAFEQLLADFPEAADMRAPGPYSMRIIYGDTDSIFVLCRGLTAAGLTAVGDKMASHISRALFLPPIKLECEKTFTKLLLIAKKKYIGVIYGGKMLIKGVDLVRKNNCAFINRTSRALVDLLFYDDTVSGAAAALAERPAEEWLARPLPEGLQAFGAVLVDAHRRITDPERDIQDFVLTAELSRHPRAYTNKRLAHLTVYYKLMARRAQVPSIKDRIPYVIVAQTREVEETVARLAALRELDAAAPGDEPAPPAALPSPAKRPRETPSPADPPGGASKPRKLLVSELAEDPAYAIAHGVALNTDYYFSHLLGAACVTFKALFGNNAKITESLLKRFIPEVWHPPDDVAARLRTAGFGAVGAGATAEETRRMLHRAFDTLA
T1 sequence (P04293 whole entry N46K): as above

Compound | Pol activity in absence of UL42 (HSV Pol [1]) | pIC50 (HSV Pol [2]) | pIC50 [3] | ability of UL42 to stimulate long-chain synthesis by Pol [3] | pIC50 [4] | dose dependent change in the FP signal [4] | CC50 at 72 h [5] [µM] | plaque formation (herpes virus strain 17) | EC90 (HSV strain 17) [nM] | CC50 ([5]; vero cells, Vero cell line, read-out: 50% toxic dose) [µM] | pIC50 [6]
Cc1ccc(C(C)C)cc1OCC(=O)NN=Cc1cc([N+](=O)[O-])ccc1O [BP1] | did not show a significant change | < 4.00 | 4.60 | greatly reduced | 4.46 | dose dependent change | 20 |  |  |  | 
CC(C)C(C(=O)O)N1C(=O)/C(=C/c2ccc(Cl)cc2Cl)SC1=S (stereo not drawn) [BP3] | significantly reduced | 4.60 | 4.52 | greatly reduced | 4.92 | dose dependent change | 200 |  |  |  | 
O=C(Nc1cccc2nsnc12)c1cc(Br)ccc1NS(=O)(=O)c1ccc(Cl)cc1 [BP5] | did not show a significant change | < 4.00 | 4.59 | greatly reduced | 4.82 | dose dependent change | 50 | completely abolish | 400 | 50 | 
CSCCC(C(=O)O)N1C(=O)/C(=C/c2ccc(Cl)cc2Cl)SC1=S (stereo not drawn) [BP9] | significantly reduced | 4.60 | 4.60 | greatly reduced | 4.32 | dose dependent change | 200 |  |  |  | 
CSCC[C@H](NC(=O)[C@H](CCCNC(=N)N)NC(=O)[C@H](CCCNC(=N)N)NC(=O)[C@@H](NC(=O)[C@H](CCC(=O)O)NC(=O)[C@H](CCC(=O)O)NC(=O)[C@H](C)NC(=O)[C@@H](NC(=O)[C@H](C)NC(=O)CNC(=O)[C@H](C)NC(=O)CNC(=O)[C@@H](NC(=O)[C@H](C)NC(=O)CNC(=O)[C@H](Cc1ccccc1)NC(=O)CNC(=O)[C@H](C)NC(=O)[C@@H](NC(=O)[C@H](CCCNC(=N)N)NC(=O)[C@H](CC(C)C)NC(=O)[C@H](CCCNC(=N)N)NC(=O)[C@H](C)NC(=O)[C@H](C)NC(=O)[C@@H](NC(=O)[C@H](CC(=O)O)NC(=O)[C@H](CC(=O)O)NC(C)=O)C(C)C)[C@@H](C)O)C(C)C)[C@@H](C)O)[C@@H](C)O)C(=O)N[C@@H](CC(C)C)C(=O)N[C@@H](Cc1c[nH]cn1)C(=O)N[C@@H](CCCNC(=N)N)C(=O)N[C@@H](C)C(=O)N[C@@H](Cc1ccccc1)C(=O)N[C@@H](CC(=O)O)C(=O)N[C@H](C(=O)N[C@@H](CC(C)C)C(=O)N[C@@H](C)C(N)=O)[C@@H](C)O [peptide A] |  |  |  |  |  |  |  |  |  |  | 5.52
ATAEEETRRMLHRAFDTLA [peptide E, Ac-Ala-Thr-Ala-Glu-Glu-Glu-Thr-Arg-Arg-Met-Leu-His-Arg-Ala-Phe-Asp-Thr-Leu-Ala-NH2] |  |  |  |  |  |  |  |  |  |  | 4.96
